Results as given in patent US9096593B2, “Compounds and methods for kinase modulation, and indications therefor” (Plexxikon Inc., priority 2009, dated 2015).
Read-outs that look alike come from different tables or passages of the source.

Key:
CYP3A4(BQ) = CYP3A4(BQ) (Homo sapiens (Human), UniProt P08684); assay: CYP enzyme inhibition, fluorescent substrate
Procedure, shortened: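 […]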

[1] = Turbidity assay of relative solubility in aqueous buffers; type: physicochemical; conditions: for turbidity threshold (L, M, H) 1.4: pH 1.4 as headed (method: SGF pH 1.5); for turbidity threshold (L, M, H) 4.5: pH 4.5 (SIF); for turbidity threshold (L, M, H) 6.8: pH 6.8 (SIF); for turbidity threshold (L, M, H) 7.4: pH 7.4 (HEPES)
Procedure, shortened: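 Turbidity was read spectrophotometrically at 490, 535 and 650 nm, and the endpoint is the concentration where OD passes 0.01, as the mean of the three wavelengths. Compounds came from 25 mM DMSO stock in 1:1 serial dilutions, added to HEPES pH 7.4, SIF pH 6.8 or 4.5 (0.05M NaH2PO4), or SGF pH 1.5 (0.5M NaCl).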

[2] = read-out: Cyp IC50 (μM) 3A4(BQ), BQ substrate

Sequence of CYP3A4(BQ) (P08684 whole entry): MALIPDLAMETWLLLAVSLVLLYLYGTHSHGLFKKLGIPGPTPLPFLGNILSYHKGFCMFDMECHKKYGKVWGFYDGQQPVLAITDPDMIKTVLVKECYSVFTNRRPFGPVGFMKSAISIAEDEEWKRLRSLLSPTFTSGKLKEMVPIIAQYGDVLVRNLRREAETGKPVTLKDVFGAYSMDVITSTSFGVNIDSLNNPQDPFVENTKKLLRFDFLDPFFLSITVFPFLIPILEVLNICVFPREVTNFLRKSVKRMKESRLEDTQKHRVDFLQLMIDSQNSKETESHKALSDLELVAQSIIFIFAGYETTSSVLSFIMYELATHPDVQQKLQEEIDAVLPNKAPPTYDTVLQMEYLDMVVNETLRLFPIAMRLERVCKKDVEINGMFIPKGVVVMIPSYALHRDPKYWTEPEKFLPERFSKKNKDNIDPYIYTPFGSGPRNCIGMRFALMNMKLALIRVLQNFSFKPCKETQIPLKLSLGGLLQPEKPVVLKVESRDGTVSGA

For `Cc1cnc2[nH]cc(Cc3cnc(NCc4ccc(C(F)(F)F)nc4)c(F)c3)c2c1` [Compound P-2146, [3-Fluoro-5-(5-methyl-1H-pyrrolo[2,3-b]pyridin-3-ylmethyl)-pyridin-2-yl]-(6-trifluoromethyl-pyridin-3-ylmethyl)-amine], the IC50 (CYP3A4(BQ); [2]) was > 10 µM, the “turbidity threshold (L, M, H) 1.4” value [1] was “H (high solubility if the threshold concentration is >250 μM)” and the “turbidity threshold (L, M, H) 4.5” value [1] was “M (moderate solubility if the threshold concentration is 31.3 μM to 250 μM)”. The “turbidity threshold (L, M, H) 6.8” value [1] was “M (moderate solubility if the threshold concentration is 31.3 μM to 250 μM)” and the “turbidity threshold (L, M, H) 7.4” value [1] was “L (low solubility if the threshold concentration is <31.3 μM)”.
With `COc1cc(CNc2ccc(Cc3c[nH]c4ncc(C)cc34)c(F)n2)c(F)cn1` [Compound P-2071, (5-Fluoro-2-methoxy-pyridin-4-ylmethyl)-[6-fluoro-5-(5-methyl-1H-pyrrolo[2,3-b]pyridin-3-ylmethyl)-pyridin-2-yl]-amine] the IC50 (CYP3A4(BQ)) was 5 to 10 µM, the “turbidity threshold (L, M, H) 1.4” value [1] was “M (moderate solubility if the threshold concentration is 31.3 μM to 250 μM)” and the “turbidity threshold (L, M, H) 4.5” value [1] was “L (low solubility if the threshold concentration is <31.3 μM)”. For the same compound, the “turbidity threshold (L, M, H) 6.8” value [1] was “L (low solubility if the threshold concentration is <31.3 μM)” and the “turbidity threshold (L, M, H) 7.4” value [1] was “L (low solubility if the threshold concentration is <31.3 μM)”.
With `COc1ncccc1CNc1ccc(Cc2c[nH]c3ncccc23)c(F)n1` [Compound P-2045, [6-Fluoro-5-(1H-pyrrolo[2,3-b]pyridin-3-ylmethyl)-pyridin-2-yl]-(2-methoxy-pyridin-3-ylmethyl)-amine] the IC50 (CYP3A4(BQ); [2]) was > 10 µM, the “turbidity threshold (L, M, H) 1.4” value [1] was “H (high solubility if the threshold concentration is >250 μM)” and the “turbidity threshold (L, M, H) 4.5” value [1] was “M (moderate solubility if the threshold concentration is 31.3 μM to 250 μM)”. For the same compound, the “turbidity threshold (L, M, H) 6.8” value [1] was “M (moderate solubility if the threshold concentration is 31.3 μM to 250 μM)” and the “turbidity threshold (L, M, H) 7.4” value [1] was “M (moderate solubility if the threshold concentration is 31.3 μM to 250 μM)”.
In the case of `Cc1cc(CNc2ccc(Cc3c[nH]c4ncc(Cl)cc34)c(F)n2)ccn1` [Compound P-2075, [5-(5-Chloro-1H-pyrrolo[2,3-b]pyridin-3-ylmethyl)-6-fluoro-pyridin-2-yl]-(2-methyl-pyridin-4-ylmethyl)-amine], the IC50 (CYP3A4(BQ)) is reported as 5 to 10 µM, the “turbidity threshold (L, M, H) 1.4” value [1] is reported as “H (high solubility if the threshold concentration is >250 μM)” and the “turbidity threshold (L, M, H) 4.5” value [1] is reported as “M (moderate solubility if the threshold concentration is 31.3 μM to 250 μM)”. For the same compound, the “turbidity threshold (L, M, H) 6.8” value [1] was “L (low solubility if the threshold concentration is <31.3 μM)” and the “turbidity threshold (L, M, H) 7.4” value [1] was “M (moderate solubility if the threshold concentration is 31.3 μM to 250 μM)”.
For `COc1ncc(CNc2ncc(Cc3c[nH]c4ncc(C)cc34)cn2)cc1F` [Compound P-2073, (5-Fluoro-6-methoxy-pyridin-3-ylmethyl)-[5-(5-methyl-1H-pyrrolo[2,3-b]pyridin-3-ylmethyl)-pyrimidin-2-yl]-amine], the IC50 (CYP3A4(BQ); [2]) was > 10 µM, the “turbidity threshold (L, M, H) 1.4” value [1] was “H (high solubility if the threshold concentration is >250 μM)” and the “turbidity threshold (L, M, H) 4.5” value [1] was “M (moderate solubility if the threshold concentration is 31.3 μM to 250 μM)”. The “turbidity threshold (L, M, H) 6.8” value [1] was “M (moderate solubility if the threshold concentration is 31.3 μM to 250 μM)” and the “turbidity threshold (L, M, H) 7.4” value [1] was “M (moderate solubility if the threshold concentration is 31.3 μM to 250 μM)”.
In the case of `COc1ccc(CNc2ncc(Cc3c[nH]c4ncc(C)cc34)cc2F)cn1` [Compound P-1562, [3-Fluoro-5-(5-methyl-1H-pyrrolo[2,3-b]pyridin-3-ylmethyl)-pyridin-2-yl]-(6-methoxy-pyridin-3-ylmethyl)-amine], the IC50 (CYP3A4(BQ)) is reported as 5 to 10 µM, the “turbidity threshold (L, M, H) 1.4” value [1] is reported as “H (high solubility if the threshold concentration is >250 μM)” and the “turbidity threshold (L, M, H) 4.5” value [1] is reported as “H (high solubility if the threshold concentration is >250 μM)”. The “turbidity threshold (L, M, H) 6.8” value [1] was “M (moderate solubility if the threshold concentration is 31.3 μM to 250 μM)” and the “turbidity threshold (L, M, H) 7.4” value [1] was “M (moderate solubility if the threshold concentration is 31.3 μM to 250 μM)”.
In the case of `COc1ncccc1CNc1ccc(Cc2c[nH]c3ncc(C)cc23)c(F)n1` [Compound P-2052, [6-Fluoro-5-(5-methyl-1H-pyrrolo[2,3-b]pyridin-3-ylmethyl)-pyridin-2-yl]-(2-methoxy-pyridin-3-ylmethyl)-amine], the IC50 (CYP3A4(BQ)) is reported as 5 to 10 µM, the “turbidity threshold (L, M, H) 1.4” value [1] is reported as “H (high solubility if the threshold concentration is >250 μM)” and the “turbidity threshold (L, M, H) 4.5” value [1] is reported as “L (low solubility if the threshold concentration is <31.3 μM)”. The “turbidity threshold (L, M, H) 6.8” value [1] was “L (low solubility if the threshold concentration is <31.3 μM)” and the “turbidity threshold (L, M, H) 7.4” value [1] was “L (low solubility if the threshold concentration is <31.3 μM)”.
With `COc1cnc2[nH]cc(Cc3ccc(NCc4cncc(F)c4)nc3F)c2c1` [Compound P-2028, [6-Fluoro-5-(5-methoxy-1H-pyrrolo[2,3-b]pyridin-3-ylmethyl)-pyridin-2-yl]-(5-fluoro-pyridin-3-ylmethyl)-amine] the IC50 (CYP3A4(BQ); [2]) was < 5 µM, the “turbidity threshold (L, M, H) 1.4” value [1] was “H (high solubility if the threshold concentration is >250 μM)” and the “turbidity threshold (L, M, H) 4.5” value [1] was “M (moderate solubility if the threshold concentration is 31.3 μM to 250 μM)”. For the same compound, the “turbidity threshold (L, M, H) 6.8” value [1] was “M (moderate solubility if the threshold concentration is 31.3 μM to 250 μM)” and the “turbidity threshold (L, M, H) 7.4” value [1] was “M (moderate solubility if the threshold concentration is 31.3 μM to 250 μM)”.
In the case of `COc1ccc(CNc2ccc(Cc3c[nH]c4ncc(F)cc34)c(F)n2)cn1` [Compound P-1622, [6-Fluoro-5-(5-fluoro-1H-pyrrolo[2,3-b]pyridin-3-ylmethyl)-pyridin-2-yl]-(6-methoxy-pyridin-3-ylmethyl)-amine], the IC50 (CYP3A4(BQ)) is reported as 5 to 10 µM, the “turbidity threshold (L, M, H) 1.4” value [1] is reported as “H (high solubility if the threshold concentration is >250 μM)” and the “turbidity threshold (L, M, H) 4.5” value [1] is reported as “M (moderate solubility if the threshold concentration is 31.3 μM to 250 μM)”. For the same compound, the “turbidity threshold (L, M, H) 6.8” value [1] was “M (moderate solubility if the threshold concentration is 31.3 μM to 250 μM)” and the “turbidity threshold (L, M, H) 7.4” value [1] was “M (moderate solubility if the threshold concentration is 31.3 μM to 250 μM)”.
For `COc1ncc(F)cc1CNc1ncc(Cc2c[nH]c3ncc(C)cc23)cn1` [Compound P-2061, (5-Fluoro-2-methoxy-pyridin-3-ylmethyl)-[5-(5-methyl-1H-pyrrolo[2,3-b]pyridin-3-ylmethyl)-pyrimidin-2-yl]-amine], the IC50 (CYP3A4(BQ)) was 5 to 10 µM, the “turbidity threshold (L, M, H) 1.4” value [1] was “H (high solubility if the threshold concentration is >250 μM)” and the “turbidity threshold (L, M, H) 4.5” value [1] was “M (moderate solubility if the threshold concentration is 31.3 μM to 250 μM)”. The “turbidity threshold (L, M, H) 6.8” value [1] was “M (moderate solubility if the threshold concentration is 31.3 μM to 250 μM)” and the “turbidity threshold (L, M, H) 7.4” value [1] was “L (low solubility if the threshold concentration is <31.3 μM)”.
For `Fc1cncc(CNc2ccc(Cc3c[nH]c4ncc(Cl)cc34)c(F)n2)c1` [Compound P-2001, [5-(5-Chloro-1H-pyrrolo[2,3-b]pyridin-3-ylmethyl)-6-fluoro-pyridin-2-yl]-(5-fluoro-pyridin-3-ylmethyl)-amine], the IC50 (CYP3A4(BQ)) was 5 to 10 µM, the “turbidity threshold (L, M, H) 1.4” value [1] was “M (moderate solubility if the threshold concentration is 31.3 μM to 250 μM)” and the “turbidity threshold (L, M, H) 4.5” value [1] was “L (low solubility if the threshold concentration is <31.3 μM)”. The “turbidity threshold (L, M, H) 6.8” value [1] was “L (low solubility if the threshold concentration is <31.3 μM)” and the “turbidity threshold (L, M, H) 7.4” value [1] was “L (low solubility if the threshold concentration is <31.3 μM)”.
